The record followed here is patent US6685617B1, “Inhibitors of α4β1 mediated cell adhesion” (Pharmacia & Upjohn Company, priority 1998, dated 2004).

Data set [1] concerns the target T1, α4β1 integrin (Jurkat T-cell adhesion to IL-1 stimulated endothelial cell monolayers) (Homo sapiens, UniProt P05556+P13612).
T1 construct: a T-cell line, Jurkat, known to express the α4β1 integrin; host or cells: Jurkat T-cell line
In words: Jurkat-endothelial cell adhesion assay (Jurkat EC). The following applies: Jurkat cells on IL-1 stimulated human umbilical vein endothelial cells; read-out: JK/EC (Jurkat EC Assay IC50 value range). It is filed as cell-based. Put shortly: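 BCECF-AM-labelled Jurkat cells were mixed with compound, generally 100, 20, 5 and 1.25 μM, and added to HUVEC monolayers (passage ≤6) pre-stimulated 4 hr at 37° C with 0.1 ng/ml IL-1. After 5 min on ice and 20 min at 37° C, washed wells were read by fluorescence as % adhesion relative to no compound.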

In data set [2] the target is T2, α4β1 integrin (Jurkat cell adhesion to immobilized CS-1 derived peptide CLHPGEILDVPST) (Homo sapiens, UniProt P05556+P13612).
T2 construct: 100 μl of Jurkat cells (2.5×10^6 cells/ml) in DMEM plus BSA; host or cells: Jurkat T-cell line
T2 sequence (P13612 34-1032): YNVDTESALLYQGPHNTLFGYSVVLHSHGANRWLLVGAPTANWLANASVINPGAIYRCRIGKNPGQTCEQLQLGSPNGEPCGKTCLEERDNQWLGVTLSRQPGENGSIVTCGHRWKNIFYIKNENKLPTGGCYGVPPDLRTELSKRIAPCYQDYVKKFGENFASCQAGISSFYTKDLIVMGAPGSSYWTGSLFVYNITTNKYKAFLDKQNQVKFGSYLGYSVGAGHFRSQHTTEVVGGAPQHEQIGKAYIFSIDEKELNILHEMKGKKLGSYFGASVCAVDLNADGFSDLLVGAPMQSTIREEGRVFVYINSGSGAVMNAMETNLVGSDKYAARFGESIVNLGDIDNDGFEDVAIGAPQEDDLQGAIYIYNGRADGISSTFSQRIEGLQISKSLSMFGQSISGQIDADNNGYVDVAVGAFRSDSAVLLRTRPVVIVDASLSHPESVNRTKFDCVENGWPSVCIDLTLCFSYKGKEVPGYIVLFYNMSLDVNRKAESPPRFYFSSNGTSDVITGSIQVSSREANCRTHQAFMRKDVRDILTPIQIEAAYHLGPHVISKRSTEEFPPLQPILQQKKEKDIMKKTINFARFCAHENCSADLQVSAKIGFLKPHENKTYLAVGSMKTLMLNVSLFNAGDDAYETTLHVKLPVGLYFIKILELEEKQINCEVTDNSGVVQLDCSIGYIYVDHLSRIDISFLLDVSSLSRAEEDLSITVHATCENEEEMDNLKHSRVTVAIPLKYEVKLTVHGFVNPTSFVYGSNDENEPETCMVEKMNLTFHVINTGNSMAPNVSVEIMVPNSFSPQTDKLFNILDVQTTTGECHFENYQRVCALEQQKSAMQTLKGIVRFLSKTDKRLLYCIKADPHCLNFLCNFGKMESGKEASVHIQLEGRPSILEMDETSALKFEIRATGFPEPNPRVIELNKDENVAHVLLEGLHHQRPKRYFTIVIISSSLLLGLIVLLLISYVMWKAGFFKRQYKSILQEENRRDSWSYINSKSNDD
T2 sequence (P05556 21-798): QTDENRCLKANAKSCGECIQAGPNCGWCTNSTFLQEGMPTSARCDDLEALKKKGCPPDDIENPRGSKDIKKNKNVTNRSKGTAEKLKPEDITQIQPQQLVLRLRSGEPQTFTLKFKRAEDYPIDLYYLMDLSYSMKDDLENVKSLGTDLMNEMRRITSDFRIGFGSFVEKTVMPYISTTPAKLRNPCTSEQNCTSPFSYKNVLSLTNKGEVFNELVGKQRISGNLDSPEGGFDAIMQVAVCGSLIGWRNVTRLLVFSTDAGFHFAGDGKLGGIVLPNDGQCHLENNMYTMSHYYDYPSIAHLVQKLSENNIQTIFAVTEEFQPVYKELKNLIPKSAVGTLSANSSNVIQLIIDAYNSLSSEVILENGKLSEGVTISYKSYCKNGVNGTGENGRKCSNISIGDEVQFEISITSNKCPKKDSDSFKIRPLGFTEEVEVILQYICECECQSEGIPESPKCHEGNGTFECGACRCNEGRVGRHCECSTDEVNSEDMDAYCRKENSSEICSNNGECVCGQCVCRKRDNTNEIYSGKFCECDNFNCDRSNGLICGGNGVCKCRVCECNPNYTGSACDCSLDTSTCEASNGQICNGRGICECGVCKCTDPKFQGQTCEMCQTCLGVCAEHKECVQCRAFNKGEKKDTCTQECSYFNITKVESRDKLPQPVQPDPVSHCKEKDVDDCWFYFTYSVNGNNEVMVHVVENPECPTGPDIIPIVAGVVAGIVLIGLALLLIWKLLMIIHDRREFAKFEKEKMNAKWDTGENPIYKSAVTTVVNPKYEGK
In words: Jurkat-CS-1 assay. It is filed as cell-based. The following applies: Jurkat cells on CS-1 peptide coated plates; read-out: JK/CS-1 (Jurkat CS-1 Assay IC50 value range). The method, boiled down:
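CS-1 peptide was SPDP-crosslinked onto HSA-coated plates and blocked with BSA. Jurkat cells (2.5×10^6 cells/ml) in DMEM/BSA were mixed with compound, generally at 100, 20, 5 and 1.25 μM, and allowed to adhere for 1 hr at 37° C. Bound cells were fixed, stained with toluidine blue and quantified by OD590.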

The subject of data set [3] is VLA-4 integrin-dependent eosinophil infiltration. Put plainly: Dextran pleurisy model (intrapleural dextran, pleural leukocyte infiltration). The class given is in vivo, C57BL/6 mice. As to conditions: dose 50 × 2 iv; mouse, 4 h after intrapleural dextran. The procedure: Animals, Housing and Viral Testing:
C57BL/6 mice (Jackson, Bar Harbor, Me.), 6-8 weeks old, weighing 20-25 g were used throughout. All mice were acclimated for at least 7-14 days after arrival and maintained under controlled temperature (20-22° C.) and a 12 hr daily light cycle (6.00 A.M.-6.00 P.M.). Mice were housed in laminar flow racks and checked biweekly for viral infections (mouse hepatitis virus, minute virus of mice, rodent orphan parvovirus, Sendai) with kits obtained from Oreganon Teknika (Durham, N.C.) using established enzyme-linked immunoabsorbent assays. Mice testing positive for any of the above were omitted from the study. […]
Quantitation of Pleural Inflammatory Leukocyte Responses: […]
The pleural cavities of mice receiving either no intrapleural injection, or saline were washed and the cells counted in the same way to estimate baseline or saline-induced pleural leukocyte counts respectively. […]
The following compounds were tested for their inhibitory effects on dextran-induced leukocyte infiltration: Examples 3, 8, 9, 10, 12, 16, 37, 62, 66, 67, 99, 100, 111, 113, 115, 127, 131, 141, 184, 185, 192, PBS (saline) was administered iv. as a control. Inhibition of eosinophil infiltration, which was suppressed by anti-alpha-4 Mab (PS/2, 50%), was used as a readout of VLA-4 antagonist activity of the compounds tested. […]

T1 sequence (P13612 34-1032): as the sequence (P13612 34-1032) above
T1 sequence (P05556 21-798): as the sequence (P05556 21-798) above

For the molecule “[2R-[1(S*),2α,4β(S*)]]-4-[[[1-Carboxy-2-[4-[(2,6-dichlorobenzoyl)amino]phenyl]ethyl]-amino]carbonyl]-1-(1-phenylethyl)-2-azetidincearboxylic Acid, Dilithium Salt [Example 131]”, the IC50 in data set [1] fell in the range of 250 to 1000 nM; in data set [2] it was 50 to 750 nM. For the same molecule, in data set [3], the “% Inhibition of Eosinophil infiltration (Eos)” value is recorded as “C (C<19)”.
With `COC(=O)[C@H](Cc1ccc(NC(=O)c2c(Cl)cccc2Cl)cc1)NC(=O)[C@H]1CSCN1C(=O)N(CCO)CCO` [Example 57, N-[[(4S)-3-[[bis(2-Hydroxyethyl)amino]carbonyl]-4-thiazolidinyl]carbonyl]-4-[(2,6-dichlorobenzoyl)amino]-L-phenylalanine Methyl Ester], the melting point was in the range of 105 to 107 °C. The IC50 in data set [1] is no less than 1000 nM. Moreover, the IC50 in data set [2] is no less than 750 nM.
Turning to `COC(=O)[C@H](Cc1ccc(NC(=O)c2c(Cl)cccc2Cl)cc1)NC(=O)[C@H]1CSCN1C(=O)N1CCOCC1` [Example 56, 4-[(2,6-Dichlorobenzoyl)amino]-N-[[(4S)-3-(4-morpholinylcarbonyl)-4-thiazolidinyl]carbonyl]-L-phenylalanine Methyl Ester], the melting point was 223 to 225 °C. Also, the IC50 in data set [1] was no less than 1000 nM. Besides, the IC50 in data set [2] is 50 to 750 nM.
As for `CN(CCc1ccccn1)C(=O)N1CSC[C@@H]1C(=O)N[C@@H](Cc1ccc(OCc2c(Cl)cccc2Cl)cc1)C(=O)O` (relative stereo) [Example 153, [S-(R*,R*)]-4-[[[1-Carboxy-2-[4-[(2,6-dichlorophenyl)methoxy]phenyl]ethyl]amino]-carbonyl]-N-methyl-N-[2-(2-pyridinyl)ethyl]-3-thiazolidinecarboxamide], the melting point was 80 °C. Further, the IC50 in data set [1] is no less than 1000 nM. Besides, the IC50 in data set [2] is no less than 750 nM.
The matching figures for `COC(=O)[C@H](Cc1ccc(OCc2c(Cl)cccc2Cl)cc1)NC(=O)[C@H]1CSCN1C(=O)OCCN1CCCC1` (relative stereo) [Example 39, [S-(R*,R*)]-4-[[[1-[4-[(2,6-Dichlorophenyl)methoxy]phenyl]methyl]-2-methoxy-2-oxoethyl]amino]carbonyl]-3-thiazolidinecarboxylic Acid 3-[2-(1-Pyrrolidinyl)ethyl]ester]: 130 to 132 °C, no more than 250 nM and 50 to 750 nM.
